Assay results: patent US20260077043A1, “COMBINATION THERAPY” (LEAP THERAPEUTICS, INC., priority 2022, published 2026)

Key:
[1] = system: HCT116 human colorectal carcinoma cells with H1047R mutation; assay: HCT116 H1047/− subcutaneous xenograft, tumor growth inhibition; type: in vivo, BALB/c scid mice; settings: Day 48 (Treatment Day 36), compared to the IgG4 control; DKN-01 5 mg/kg IP twice weekly, BYL719 25 mg/kg PO QD
Description: (§1) A study was initiated to evaluate growth of a human colorectal cancer cell line, HCT116, with and without the PI3KCA H1047R mutation in mice treated with DKN-01, the PI3KCA inhibitor BYL719 (Alpelisib), or the combination. Female BALB/c scid mice were inoculated subcutaneously with HCT116 human colon carcinoma cells with or without the H1047R mutation on Day 0. On Day 17, when tumors volumes had reached 50-75 mm3, animals were randomized into treatment groups and dosing was initiated.
(§2) Female BALB/c scid mice (10 per group) were inoculated subcutaneously in the right flank with 10×10^6 HCT116 human colorectal carcinoma cells on Day 0. Human IgG4 control (10 mg/kg) and DKN-01 (5 mg/kg) were administered intraperitoneally (IP) twice weekly. BYL719 (25 mg/kg) was administered orally (PO) every day (QD) for the duration of the study. Tumor measurements were performed every 3-4 days with calipers and volume (V) was calculated using the following formula: V=½(length [mm]×width [mm]^2). Data are shown as mean tumor volumes (MTV)+SEM. #, p<0.05. Percent TGI =[(MTV Control)−(MTV Treated)]/(MTV Control). Comparisons between groups at study termination were performed using a one-way repeated measures ANOVA with Tukey's multiple comparisons test.

[2] = system: HCT116 human colorectal carcinoma cells without the PIK3CA H1047R mutation; assay: HCT116 PIK3CA+/− subcutaneous xenograft, tumor growth inhibition; type: in vivo, BALB/c scid mice; settings: Day 52 (Treatment Day 36), compared to the IgG4 control; DKN-01 5 mg/kg IP twice weekly, BYL719 25 mg/kg PO QD
Description: as §1, §2

Structure (SMILES): Cc1nc(NC(=O)N2CCC[C@H]2C(N)=O)sc1-c1ccnc(C(C)(C)C(F)(F)F)c1 [BYL719, Alpelisib]
- Tumor Growth Inhibition (TGI) [1]: 56%
- Tumor Growth Inhibition (TGI) [2]: 50%
